Data: patent US12275726B2, “Aurora kinase inhibitors and use thereof” (WIGEN BIOMEDICINE TECHNOLOGY (SHANGHAI) CO., LTD., priority 2019, dated 2025)
Read-outs that look alike come from different tables or passages of the source.

Experiments:
[1] = molecular target: T1, Aurora-A kinase (Homo sapiens, UniProt O14965); experiment: Caliper Mobility Shift assay for inhibitory activity against aurora kinase (Aurora-A); type: biochemical; details: FAM-labeled polypeptide substrate, 25° C.
T1 sequence (O14965 1-403): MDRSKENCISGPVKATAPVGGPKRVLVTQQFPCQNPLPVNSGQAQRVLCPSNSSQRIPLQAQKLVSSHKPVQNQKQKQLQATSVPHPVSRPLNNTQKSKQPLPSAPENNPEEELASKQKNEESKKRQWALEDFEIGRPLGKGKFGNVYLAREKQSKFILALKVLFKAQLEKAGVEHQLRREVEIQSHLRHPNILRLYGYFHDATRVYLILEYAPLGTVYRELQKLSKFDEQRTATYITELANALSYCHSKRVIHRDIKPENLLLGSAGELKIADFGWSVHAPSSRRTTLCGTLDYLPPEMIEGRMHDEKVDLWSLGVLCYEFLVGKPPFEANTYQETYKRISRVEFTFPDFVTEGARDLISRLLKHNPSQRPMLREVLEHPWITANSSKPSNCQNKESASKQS
Experimental: (§1) The compounds were each subjected to gradient dilution from 10 μM to obtain a total of 10 concentrations. After the enzyme and kinase reaction solution (20 mM HEPES, pH 7.5, 0.01% Triton X-100) were mixed, the gradiently diluted compound was added. The mixture was incubate at room temperature for 10 min to allow the compound and enzyme to bind well. Then, FAM-labeled polypeptide was added as a substrate to carry out a kinase reaction at 25° C., and after a certain time, a stop solution was added.

[2] = molecular target: Aurora-B kinase (Homo sapiens, UniProt Q96GD4); experiment: Caliper Mobility Shift assay for inhibitory activity against aurora kinase (Aurora-B); type: biochemical; details: FAM-labeled polypeptide substrate, 25° C.
Experimental: as §1

[3] = system: human small cell lung cancer H69 cells; experiment: Anti-proliferation activity against H69 cells (ATP content, 72 h); type: cell-based
Experimental: Tumor cells (human small cell lung cancer H69 cells) in logarithmic growth phase were seeded into a 384-well culture plate at 4×10^3 cells per well, 50 μL of medium was added to each well, and the mixtures were cultured overnight in a 37° C./5% CO2 incubator. After the cells adhered to the wall, the test compounds and the positive control drug at proper concentrations were each added, and five samples with different concentrations were prepared. A blank group was taken as a negative control group, and the resulting mixtures were cultured in an incubator for 72 h. 50 μL of CTL plus was then added to each well, and the number of cells was evaluated by measuring ATP content in the cells.

[4] = system: Human lung cancer H69 cells graft tumors; experiment: Anti-tumor activity in nude mice bearing H69 graft tumors; type: in vivo; details: for in vivo anti-tumor activity compared with the positive control LY-3295668: 20 mg/kg bid*21, H69 graft tumors in nude mice, statement in words; for Anti-tumor effect: 20 mg/kg, bid*21, intragastric, suspension in 0.5% CMC-Na, NCI-H69 graft tumors in nude mice
Experimental: 1×10^7 H69 cells were injected into the right dorsal side of each nude mouse, and the animals were randomly grouped for administration after tumors grew to 150 mm^3. […] On Tuesday and Thursday each week, tumor volumes and body weight of mice were measured, and the nude mice were sacrificed on day 21 of administration.

Aurora-B kinase, sequence (Q96GD4 whole entry): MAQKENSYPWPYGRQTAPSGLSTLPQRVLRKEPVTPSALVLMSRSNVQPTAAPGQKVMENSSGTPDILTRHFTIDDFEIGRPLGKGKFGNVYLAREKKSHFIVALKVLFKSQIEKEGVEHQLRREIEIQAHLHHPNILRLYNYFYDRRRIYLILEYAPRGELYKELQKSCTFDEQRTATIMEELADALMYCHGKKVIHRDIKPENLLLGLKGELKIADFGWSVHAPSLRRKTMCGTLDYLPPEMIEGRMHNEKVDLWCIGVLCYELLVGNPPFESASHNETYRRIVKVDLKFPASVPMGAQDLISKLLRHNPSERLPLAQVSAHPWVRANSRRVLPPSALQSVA

Q: Which results are given for O=C(O)C1(Cc2nc(Nc3nccs3)ccc2F)CCN(Cc2cccc(Cl)c2F)C(C(F)(F)F)C1 (centres unmarked) [Compound 1, 1-(3-chloro-2-fluorobenzyl)-4-((3-fluoro-6-(thiazol-2-ylamino)pyridin-2-yl)methyl)-2-(trifluoromethyl)piperidine-4-carboxylic acid]?
A: IC50 [1]: 0.53 nM; IC50 [2]: 148 nM; IC50 ([3]; Homo sapiens, NCI-H69, 72 h): 11 nM; in vivo anti-tumor activity compared with the positive control LY-3295668 [4]: significantly increased in vivo anti-tumor activity; Anti-tumor effect [4]: 29% shrinking

Q: What does the source list for CCC1CC(Cc2nc(Nc3nccs3)ccc2F)(C(=O)O)CCN1Cc1cccc(Cl)c1F (centres unmarked) [Compound 5, 1-(3-chloro-2-fluorobenzyl)-2-ethyl-4-((3-fluoro-6-(thiazol-2-ylamino)pyridin-2-yl)methyl)piperidine-4-carboxylic acid]?
A: IC50 [1]: 0.82 nM; IC50 [2]: 140 nM; IC50 [3]: 33 nM; Anti-tumor effect [4]: 9% shrinking

Q: Which results are given for COCC1CC(Cc2nc(Nc3nccs3)ccc2F)(C(=O)O)CCN1Cc1cccc(Cl)c1F (centres unmarked) [Compound 6, 1-(3-chloro-2-fluorobenzyl)-4-((3-fluoro-6-(thiazol-2-ylamino)pyridin-2-yl)methyl)-2-(methoxymethyl)piperidine-4-carboxylic acid]?
A: IC50 [1]: 0.57 nM; IC50 [2]: 78 nM; IC50 ([3]; Homo sapiens, NCI-H69, 72 h): 49 nM; in vivo anti-tumor activity compared with the positive control LY-3295668 [4]: significantly increased in vivo anti-tumor activity; Anti-tumor effect [4]: 30% shrinking

Q: What does the source list for CCOCC1CC(Cc2nc(Nc3nccs3)ccc2F)(C(=O)O)CCN1Cc1cccc(Cl)c1F (centres unmarked) [Compound 7, 1-(3-chloro-2-fluorobenzyl)-2-(ethoxymethyl)-4-((3-fluoro-6-(thiazol-2-ylamino)pyridin-2-yl)methyl)piperidine-4-carboxylic acid]?
A: IC50 [1]: 0.74 nM; IC50 [2]: 286 nM; IC50 ([3]; Homo sapiens, NCI-H69, 72 h): 52 nM

Q: For O=C(O)C1(Cc2nc(Nc3nccs3)ccc2F)CCN(Cc2cccc(Cl)c2F)C(CF)C1 (centres unmarked) [Compound 11, 1-(3-chloro-2-fluorobenzyl)-4-((3-fluoro-6-(thiazol-2-ylamino)pyridin-2-yl)methyl)-2-(fluoromethyl)piperidine-4-carboxylic acid], which IC50 [1] is on record?
A: Its IC50 is 2.4 nM.

Q: And the IC50 [2]?
A: The IC50 was 128 nM.

Q: And the IC50 ([3]; Homo sapiens, NCI-H69, 72 h)?
A: Its IC50 is 19 nM.

Q: With Cc1cnc(Nc2ccc(F)c(CC3(C(=O)O)CCN(Cc4cccc(Cl)c4F)C(C(F)(F)F)C3)n2)s1 (centres unmarked) [Compound 13, 1-(3-chloro-2-fluorobenzyl)-4-((3-fluoro-6-(5-methylthiazol-2-ylamino)pyridin-2-yl)methyl)-2-(trifluoromethyl)piperidine-4-carboxylic acid] as the compound, how does the IC50 [1] read?
A: Its IC50 is 0.64 nM.

Q: What about the IC50 [2] of the same compound?
A: Its IC50 is 113 nM.

Q: And the IC50 ([3]; Homo sapiens, NCI-H69, 72 h)?
A: Its IC50 is 590 nM.

Q: Which IC50 [1] does the source give for Cc1cc(Nc2ccc(F)c(CC3(C(=O)O)CCN(Cc4cccc(Cl)c4F)C(C(F)(F)F)C3)n2)n[nH]1 (centres unmarked) [Compound 15, 1-(3-chloro-2-fluorobenzyl)-4-((3-fluoro-6-((5-methyl-1H-pyrazol-3-yl)amino)pyridin-2-yl)methyl)-2-(trifluoromethyl)piperidine-4-carboxylic acid] here?
A: The IC50 was 0.62 nM.

Q: And the IC50 [2]?
A: Its IC50 is 1490 nM.

Q: What about the IC50 ([3]; Homo sapiens, NCI-H69, 72 h) of the same compound?
A: The IC50 was 770 nM.

Q: With CCC1CC(Cc2nc(Nc3cc(C)[nH]n3)ccc2F)(C(=O)O)CCN1Cc1cccc(Cl)c1F (centres unmarked) [Compound 19, 1-(3-chloro-2-fluorobenzyl)-2-ethyl-4-((3-fluoro-6-((5-methyl-1H-pyrazol-3-yl)amino)pyridin-2-yl)methyl)piperidine-4-carboxylic acid] as the compound, how does the IC50 [1] read?
A: The IC50 was 3.1 nM.

Q: And the IC50 [2]?
A: The IC50 was greater than 3000 nM.

Q: What about the IC50 ([3]; Homo sapiens, NCI-H69, 72 h) of the same compound?
A: The IC50 was 219 nM.

Q: With COCC1CC(Cc2nc(Nc3ncc(C)s3)ccc2F)(C(=O)O)CCN1Cc1cccc(Cl)c1F (centres unmarked) [Compound 23, 1-(3-chloro-2-fluorobenzyl)-4-((3-fluoro-6-(5-methylthiazol-2-ylamino)pyridin-2-yl)methyl)-2-(methoxymethyl)piperidine-4-carboxylic acid] as the compound, how does the IC50 [1] read?
A: Its IC50 is 0.57 nM.

Q: What about the IC50 [2] of the same compound?
A: The IC50 was 2470 nM.

Q: What about the IC50 ([3]; Homo sapiens, NCI-H69, 72 h) of the same compound?
A: Its IC50 is 58 nM.

Q: Which IC50 [1] does the source give for COCC1CC(Cc2nc(Nc3cc(C)[nH]n3)ccc2F)(C(=O)O)CCN1Cc1cccc(Cl)c1F (centres unmarked) [Compound 25, 1-(3-chloro-2-fluorobenzyl)-4-((3-fluoro-6-((5-methyl-1H-pyrazol-3-yl)amino)pyridin-2-yl)methyl)-2-(methoxymethyl)piperidine-4-carboxylic acid] here?
A: The IC50 was 0.78 nM.

Q: And the IC50 [2]?
A: The IC50 was greater than 3000 nM.

Q: What about the IC50 ([3]; Homo sapiens, NCI-H69, 72 h) of the same compound?
A: Its IC50 is 98 nM.

Q: CCC1CC(Cc2nc(Nc3nccs3)ccc2F)(C(=O)O)CCN1Cc1cccc(Cl)c1F (centres unmarked) [Compound 29, 1-(3-chloro-2-fluorobenzyl)-2-ethyl-4-((3-fluoro-6-(thiazol-2-ylamino)pyridin-2-yl)methyl)piperidine-4-carboxylic acid] was tested. Which IC50 [1] did it give?
A: The IC50 was 1.3 nM.

Q: What about the IC50 [2] of the same compound?
A: Its IC50 is 90 nM.

Q: And the IC50 ([3]; Homo sapiens, NCI-H69, 72 h)?
A: Its IC50 is 24 nM.
